In the NIST ThermoML archive (doi:10.1021/je800560b):
Several values for one entry are separate records, joined by “and”; a condition that tells them apart may be missing. Equal entries are not always repeated. ± gives the expanded uncertainty stated by the source.

Conditions: Liquid

O=[Si] [silicon monooxide]
Conditions | vapor or sublimation pressure
1301 K | 0.00029 ± 5e-05 kPa and 0.00016 ± 9e-05 kPa
1315 K | 0.0004 ± 7e-05 kPa and 0.00024 ± 6e-05 kPa
1325 K | 0.0005 ± 8e-05 kPa and 0.00032 ± 7e-05 kPa
1335 K | 0.00064 ± 9e-05 kPa and 0.0004 ± 8e-05 kPa
1350 K | 0.00088 ± 0.00013 kPa and 0.00089 ± 0.00014 kPa and 0.00057 ± 0.00012 kPa
1364 K | 0.00123 ± 0.00031 kPa and 0.00082 ± 0.00021 kPa
1374 K | 0.00155 ± 0.00038 kPa and 0.00152 ± 0.00038 kPa and 0.00103 ± 0.00027 kPa
1399 K | 0.0026 ± 0.0007 kPa and 0.00175 ± 0.00048 kPa
1421 K | 0.0042 ± 0.0012 kPa and 0.00287 ± 0.0008 kPa
1433 K | 0.0054 ± 0.0016 kPa and 0.0037 ± 0.0011 kPa
1446 K | 0.0071 ± 0.0022 kPa and 0.0048 ± 0.0016 kPa
1470 K | 0.0116 ± 0.0037 kPa and 0.0114 ± 0.0037 kPa and 0.0079 ± 0.0026 kPa
1495 K | 0.0185 ± 0.0063 kPa and 0.0177 ± 0.006 kPa and 0.0127 ± 0.0043 kPa
1519 K | 0.029 ± 0.01 kPa and 0.027 ± 0.009 kPa and 0.0201 ± 0.0066 kPa
